Experimental data published in patent US20180049998A1, “Naphthoquinone Compounds and Methods for Preparing the Same” (priority 2016, published 2018).

CCOC(=O)C(C)(CCC1=C(C)C(=O)c2ccccc2C1=O)C(=O)OCC
melting point: 96 °C
